Measurements taken from PMC5956543, “Antimicrobial and antioxidant activities of triterpenoid and phenolic derivatives from two Cameroonian Melastomataceae plants: Dissotis senegambiensis and Amphiblemma monticola” (BMC Complementary and Alternative Medicine, 2018).
In brackets after ≈: the same amount, converted by molar mass.

Columns and labels:
[1] = test system: bacterial and fungal strains; test: Broth microdilution MIC, range over all tested strains; assay type: cell-based; conditions: for MIC: range over all bacterial and fungal strains, read-out: MIC
Protocol: (§1) The microorganisms used in this study include four bacterial (Staphylococcus aureus ATCC25923, methicillin sensitive S. aureus MSSA1, methicillin resistant S. aureus MRSA3 and methicillin resistant S. aureus MRSA4) and three yeast strains (Candida albicans ATCC10231, Candida tropicalis PK233 and Cryptococcus neoformans H99). These microorganisms were taken from our laboratory collection. The fungal and bacterial strains were grown at 37 °C and maintained on Sabouraud Dextrose Agar (SDA, Conda, Madrid, Spain) and nutrient agar (NA, Conda) slants respectively.
(§2) The inocula of bacteria and yeasts were prepared from overnight cultures as previously described. Absorbance was read spectrophotometrically at 530 nm and 600 nm for yeasts and bacteria respectively. The final concentrations of microbial suspensions were 2.5 × 10^5 cells/mL for yeasts and 10^6 CFU/mL for bacteria.
(§3) The antimicrobial activity was evaluated by determining the minimum inhibitory concentrations (MICs). MICs of extracts and compounds were determined by broth micro dilution. Each test sample was dissolved in 10% v/v aqueous dimethylsulfoxide (DMSO) to give a stock solution. This was serially diluted two-fold in Mueller-Hinton Broth (MHB) for bacteria and Sabouraud Dextrose Broth (SDB) for fungi to obtain a concentration range of 4096 to 0.25 μg/mL. Then, 100 μL of each sample concentration was added to respective wells (96-well micro plate) containing 90 μL of SDB/ MHB and 10 μL of inoculum to give final concentration ranges of 2048 to 4 μg/mL (for extracts) and 256 to 0.125 μg/mL (for compounds). Dilutions of nystatin (Sigma-Aldrich, Steinheim, Germany) and ciprofloxacin (Sigma-Aldrich, Steinheim, Germany) were used as positive controls for yeasts and bacteria respectively. Broth with 10 μL of DMSO was used as negative control. The cultured micro plates were covered; then, the contents of each well were mixed thoroughly using a plate shaker (Flow Laboratory, Germany) and incubated at 37 °C for 24 h (bacteria) and 48 h (yeasts) under shaking. After the incubation period, MICs were assessed visually and were taken as the lowest sample concentration at which there was no growth or virtually no growth. The lowest concentration that yielded no growth after the sub-culturing was considered as the minimum microbicidal concentrations (MMCs). All the tests were performed in triplicate.

[2] = DPPH free radical scavenging assay; conditions: Fig. 3; vitamin C standard
Protocol: The free radical scavenging activity of extracts and compounds was evaluated according to described methods. The EC50 (μg/ml), which is the amount of sample necessary to inhibit by 50% the absorbance of free radical DPPH was calculated. Vitamin C was used as a standard control. All the analyses were carried out in triplicate.

[3] = test system: C. tropicalis PK233; test: Broth microdilution antimicrobial assay (MIC/MMC); assay type: cell-based, Candida tropicalis; conditions: for MIC / MFC: Candida tropicalis, 48 h; for MIC: 37 °C, read-out: MIC; for MFC: no growth after sub-culturing
Protocol: as §1, §2, §3

[4] = Ferric reducing antioxidant power (FRAP) assay; conditions: Perl's Prussian blue at 700 nm; Fig. 2; BHT positive control
Protocol: The FRAP was determined by the Fe^3+-Fe^2+ transformation in the presence of extracts and compounds as previously described. The Fe^2+ was monitored by measuring the formation of Perl’s Prussian blue at 700 nm. Butylated hydroxytoluene (BHT) was used as a positive control. All the tests were performed in triplicate.

[5] = test system: C. albicans ATCC10231; test: Broth microdilution antimicrobial assay (MIC/MMC); assay type: cell-based, Candida albicans; conditions: for MIC: Candida albicans, 37 °C, 48 h, read-out: MIC; for MMC: no growth after sub-culturing
Protocol: as §1, §2, §3

[6] = test system: S. aureus MSSA1; test: Broth microdilution antimicrobial assay (MIC/MMC); assay type: cell-based, Staphylococcus aureus; conditions: for MIC / MBC: Staphylococcus aureus, 24 h; for MIC: 37 °C; for MBC: no growth after sub-culturing
Protocol: as §1, §2, §3

[7] = test system: S. aureus ATCC25923; test: Broth microdilution antimicrobial assay (MIC/MMC); assay type: cell-based, Staphylococcus aureus; conditions: for MIC / MBC: Staphylococcus aureus, 24 h; for MIC: 37 °C; for MBC: no growth after sub-culturing
Protocol: as §1, §2, §3

[8] = test system: S. aureus MRSA3; test: Broth microdilution antimicrobial assay (MIC/MMC); assay type: cell-based, Staphylococcus aureus; conditions: for activity against methicillin-resistant S. aureus (in words): MRSA3; for MMC/MIC / MBC / MIC: S. aureus MRSA3; for MBC / MIC: Staphylococcus aureus, 24 h; for MBC: no growth after sub-culturing; for MIC: 37 °C
Protocol: as §1, §2, §3

[9] = test system: S. aureus MRSA4; test: Broth microdilution antimicrobial assay (MIC/MMC); assay type: cell-based, Staphylococcus aureus; conditions: for activity against methicillin-resistant S. aureus (in words): MRSA4; for MMC/MIC / MBC / MIC: S. aureus MRSA4; for MBC / MIC: Staphylococcus aureus, 24 h; for MBC: no growth after sub-culturing; for MIC: 37 °C
Protocol: as §1, §2, §3

[10] = test system: S. aureus strains; test: Broth microdilution MIC, range over the S. aureus strains; assay type: cell-based; conditions: Staphylococcus aureus; range over the four S. aureus strains
Protocol: as §1, §2
(§4) The antimicrobial activity was evaluated by determining the minimum inhibitory concentrations (MICs). MICs of extracts and compounds were determined by broth micro dilution. Each test sample was dissolved in 10% v/v aqueous dimethylsulfoxide (DMSO) to give a stock solution. […] After the incubation period, MICs were assessed visually and were taken as the lowest sample concentration at which there was no growth or virtually no growth. […]

[11] = test system: C. neoformans H99; test: Broth microdilution antimicrobial assay (MIC/MMC); assay type: cell-based, Cryptococcus neoformans; conditions: for MIC / MFC: Cryptococcus neoformans, 48 h; for MIC: 37 °C, read-out: MIC; for MFC: no growth after sub-culturing
Protocol: as §1, §2, §3

[12] = test system: yeast strains; test: Broth microdilution MIC, range over the yeast strains; assay type: cell-based; conditions: range over the three yeast strains
Protocol: as §1, §2, §4

Compound	MIC [1] [µg/mL]	MMC/MIC [3]	MIC [3] [µg/mL]	MFC [3] [µg/mL]	MIC [5] [µg/mL]	MMC [5] [µg/mL]	MMC/MIC [6]	MIC [6] [µg/mL]	MBC [6] [µg/mL]	MMC/MIC [7]	MIC [7] [µg/mL]	MBC [7] [µg/mL]	MMC/MIC [8]	MBC [8] [µg/mL]	MIC [8] [µg/mL]	MMC/MIC [9]	MBC [9] [µg/mL]	MIC [9] [µg/mL]	MMC/MIC [11]	MIC [11] [µg/mL]	also measured
COc1cc2c(=O)oc3c(OC)c(O)cc4c(=O)oc(c1O)c2c34 [Compound 7, 3,4′-di-O-methylellagic acid]	16 to 32 (≈ 48.4 to 96.9 µM)	2	32 (≈ 96.9 µM)	64 (≈ 194 µM)	32 (≈ 96.9 µM)	64	1	16 (≈ 48.4 µM)	16 (≈ 48.4 µM)	1	32 (≈ 96.9 µM)	32 (≈ 96.9 µM)	2	32 (≈ 96.9 µM)	16 (≈ 48.4 µM)	2	64 (≈ 194 µM)	32 (≈ 96.9 µM)	1	32 (≈ 96.9 µM)	DPPH radical-scavenging activity (in words) [2]: highest EC50; reducing power (FRAP, in words) [4]: lowest reducing power; MMC/MIC [5]: 2; activity against methicillin-resistant S. aureus (in words) [8]: prominent activity; activity against methicillin-resistant S. aureus (in words) [9]: prominent activity; MIC [10]: 16 to 32 µg/mL (≈ 48.4 to 96.9 µM); MFC [11]: 32 µg/mL (≈ 96.9 µM)
COC(=O)c1cc(O)c(O)c(O)c1-c1c(C(=O)OC)cc(O)c(O)c1O [Compound 8, dimethyl 4,4′,5,5′,6,6′-hexahydroxybiphenyl-2,2′-dicarboxylate]	8 to 128 (≈ 21.8 to 349 µM)	1	16 (≈ 43.7 µM)	16 (≈ 43.7 µM)	128 (≈ 349 µM)	> 256	1	32 (≈ 87.4 µM)	32 (≈ 87.4 µM)	2	32 (≈ 87.4 µM)	64 (≈ 175 µM)	2	128 (≈ 349 µM)	64 (≈ 175 µM)	2	256 (≈ 699 µM)	128 (≈ 349 µM)	1	32 (≈ 87.4 µM)	DPPH radical-scavenging activity (in words) [2]: lowest EC50; reducing power (FRAP, in words) [4]: highest reducing power; MFC [11]: 32 µg/mL (≈ 87.4 µM)
O=c1oc2c(O)c(O)cc3c(=O)oc4c(O)c(O)cc1c4c23 [Compound 10, ellagic acid]	8 to 32 (≈ 26.5 to 106 µM)	1	8 (≈ 26.5 µM)	8 (≈ 26.5 µM)	16 (≈ 52.9 µM)	16	1	16 (≈ 52.9 µM)	16 (≈ 52.9 µM)	2	8 (≈ 26.5 µM)	16 (≈ 52.9 µM)	2	64 (≈ 212 µM)	32 (≈ 106 µM)	1	32 (≈ 106 µM)	32 (≈ 106 µM)	1	16 (≈ 52.9 µM)	antimicrobial activity (in words) ([1]; all the tested bacterial and fungal species): active against all the tested bacterial and fungal species; MIC [12]: 8 to 16 µg/mL (≈ 26.5 to 52.9 µM); MMC/MIC [5]: 1; activity against methicillin-resistant S. aureus (in words) [8]: prominent activity; activity against methicillin-resistant S. aureus (in words) [9]: prominent activity; MFC [11]: 16 µg/mL (≈ 52.9 µM)
